According to PMC9017309, “Triazolopyrimidines Target Aerobic Respiration in Mycobacterium tuberculosis” (Antimicrobial Agents and Chemotherapy, 2022):
Converted amounts (≈) assume the structure as drawn. Where two headings read alike, the source gives them in different places.

Experiments:
[1] = system: M. tuberculosis H37Rv-LP DprE1 C387S; format: cell-based, Mycobacterium tuberculosis
[2] = system: M. tuberculosis H37Rv-LP MmpL3 F255L; format: cell-based, Mycobacterium tuberculosis
[3] = system: M. tuberculosis H37Rv-LP QcrB A396T; format: cell-based, Mycobacterium tuberculosis
[4] = system: M. tuberculosis H37Rv ATCC 26518 QcrBT313I; format: cell-based, Mycobacterium tuberculosis
[5] = system: M. tuberculosis H37Rv ATCC 26518 QcrBM342T; format: cell-based, Mycobacterium tuberculosis
[6] = system: M. tuberculosis H37Rv ATCC 27294 cydKO; experiment: microbe, parasite or virus in culture; format: cell-based; settings: Mycobacterium tuberculosis, 120 h, read-out: MIC, H37Rv ATCC 27294 cydKO
[7] = system: M. tuberculosis resistant isolates LP-0499227-RM; format: cell-based, Mycobacterium tuberculosis
[8] = system: M. tuberculosis resistant isolates LP-0497553-RM; experiment: microbe, parasite or virus in culture; format: cell-based, Mycobacterium tuberculosis; settings: for MIC: Mycobacterium tuberculosis, 504 h, 24-well agar plates, 3 weeks

Structure (SMILES)	MIC, DprE1 C387S [1] [µM]	MIC, MmpL3 F255L [2] [µM]	MIC, QcrB A396T [3] [µM]	MIC, H37Rv ATCC 26518 QcrBT313I [4] [µM]	MIC, H37Rv ATCC 26518 QcrBM342T [5] [µM]	MIC [6] [µM]	MIC on solid medium, LP-0499227-RM1 [7] [µM]	MIC on solid medium, LP-0499227-RM2 [7] [µM]	MIC on solid medium, LP-0499227-RM3 [7] [µM]	MIC on solid medium, LP-0499227-RM4 [7] [µM]	MIC on solid medium, LP-0499227-RM7 [7] [µM]	MIC on solid medium, LP-0497553-RM1 [8] [µM]	MIC on solid medium, LP-0497553-RM2 [8] [µM]	MIC on solid medium, LP-0497553-RM4 [8] [µM]	MIC on solid medium, LP-0497553-RM5 [8] [µM]	MIC on solid medium, LP-0497553-RM10 [8] [µM]	MIC on solid medium, LP-0497553-RM11 [8] [µM]	MIC on solid medium, LP-0497553-RM15 [8] [µM]	MIC ([8]; read-out: MIC on solid medium, LP-0497553-RM14) [µM]	MIC ([8]; read-out: MIC on solid medium, LP-0497553-RM23) [µM]
FC(F)(F)c1ccc(CCNc2cc(-c3ccccc3)nc3ncnn23)cc1 [TPN-0006243]	0.95 ± 0.29 (≈ 0.364 µg/mL)	2.7 ± 2.4 (≈ 1.04 µg/mL)	5.7 ± 2.1 (≈ 2.19 µg/mL)	>20	>20	< 0.39	–	–	–	–	–	–	–	–	–	–	–	–	–	–
Cc1ccc(CCNc2cc(-c3ccccc3)nc3ncnn23)cc1 [TPN-0006245]	0.92 ± 0.3 (≈ 0.303 µg/mL)	2 ± 0.07 (≈ 0.659 µg/mL)	5.6 ± 2.5 (≈ 1.84 µg/mL)	>20	>20	–	–	–	–	–	–	–	–	–	–	–	–	–	–	–
FC(F)(F)c1ccc(CCNc2cc(-c3ccccn3)nc3ncnn23)cc1 [TPN-0006267]	0.66 ± 0.01 (≈ 0.254 µg/mL)	1.8 ± 0.57 (≈ 0.692 µg/mL)	5.9 ± 3.5 (≈ 2.27 µg/mL)	>20	10 (≈ 3.84 µg/mL)	–	>100	>100	>100	25 (≈ 9.61 µg/mL)	>100	–	–	–	–	–	–	–	–	–
COc1ccc(CCNc2cc(-c3ccccn3)nc3ncnn23)cc1 [TPN-0006239]	0.42 ± 0.07 (≈ 0.145 µg/mL)	0.86 ± 0.21 (≈ 0.298 µg/mL)	3.4 ± 0.28 (≈ 1.18 µg/mL)	>20	11 (≈ 3.81 µg/mL)	0.13 ± 0.007 (≈ 0.045 µg/mL)	–	–	–	–	–	25 (≈ 8.66 µg/mL)	25 (≈ 8.66 µg/mL)	50 (≈ 17.3 µg/mL)	50 (≈ 17.3 µg/mL)	50 (≈ 17.3 µg/mL)	50 (≈ 17.3 µg/mL)	50 (≈ 17.3 µg/mL)	50 (≈ 17.3 µg/mL)	50 (≈ 17.3 µg/mL)
COc1ccc(CCNc2cc(-c3ccccc3)nc3ncnn23)cc1 [TPN-0006218]	0.94 ± 0.67 (≈ 0.325 µg/mL)	2 ± 0.99 (≈ 0.691 µg/mL)	6.8 ± 2.8 (≈ 2.35 µg/mL)	–	–	–	–	–	–	–	–	–	–	–	–	–	–	–	–	–
